Test results reported in patent US9630977B2, “Cephalosporin derivatives and pharmaceutical compositions thereof” (Legochem Biosciences, Inc., priority 2011, dated 2017).
≈ marks a conversion by molar mass, not a printed value. Where two headings read alike, the source gives them in different places.

Key:
[1] = tested on: P. aeruginosa 1912E; assay: In vivo efficacy, whole-body infected mouse model, Ceftazidime-sensitive bacteria; design: species or system ICR mouse; conditions: P. aeruginosa 1912E (2 × 10^6CFU/mouse); for Survival rate: four days
Description: (§1) Pharmaceutical efficacy of the cephalosporin derivative compounds according to the present invention was evaluated in a whole-body infected mouse model. Tables 3 and 4 show survival rate and ED50 values for the two compounds with excellent antibacterial activity with regard to an infected mouse by a drug-sensitive bacteria and a drug-resistant bacteria.
(§2) Test animals: 3 week old male ICR mouse, weight 18˜22 g; 5 mice/group.
(§3) Lab conditions: Temperature of 23±2° C.; humidity of 55±20%.
(§4) Administration method: Inducing whole-body infection by bacterial solution followed by subcutaneous injection (0.2 mL) after 1 hour and 4 hours.
(§5) Test method: Cultured bacteria were diluted with 0.9% NaCl to prepare a bacterial solution having a concentration that is 5 to 10 times of […]. 0.5 mL of bacterial solution was injected through abdominal cavity to induce whole-body infection. Test compounds were administered in four different amounts, which were designed considering in vitro MIC values of the test bacteria. After 1 hour and 4 hours, the four different amounts of the test compounds were subcutaneously administered. Survival rates were measured for four days and ED50 values were calculated according to the Probit method.

[2] = tested on: P. aeruginosa (16 clinical isolates); assay: Antibacterial activity on representative drug-resistance bacteria: number of clinical isolates per MIC value; assay type: cell-based; conditions: P. aeruginosa (N = 16)
Description: (§6) The in vitro antibacterial activity was evaluated by measuring MIC90 (ug/mL) of each of the compounds of Examples 1 to 68, which is defined as the lowest concentration of an antibiotic that will inhibit the visible growth of 90% of microorganisms after incubation as compared with a control group to which the antibiotic is not treated. MIC90 values were measured by the broth microdilution method developed by the Clinical and Laboratory Standards Institute (CLSI) (see CLSI M7-A5, Methods for Dilution Antimicrobial Susceptibility Test for Bacteria that Grow Aerobically-Fifth Edition (2000): CLSI, Villanova, Pa.).
(§7) Test compounds each (the cephalosporin derivative compounds prepared in Examples 1 to 68) were dissolved in DMSO at the concentration of 10,240 ug/mL, were diluted by two fold with DMSO, and then were diluted by twenty fold with sterilized distilled water. The final concentration in the antibacterial activity test was in the range of […] to 128 ug/mL, and the final concentration of DMSO used as an adjuvant was 2.5% (V/V).

[3] = tested on: K. pneumoniae (38 clinical isolates); assay: as above; assay type: cell-based; conditions: K. pneumomiae (N = 38)
Description: as §6, §7

[4] = tested on: A. baumannii (6 clinical isolates); assay: as above; assay type: cell-based; conditions: MIC >16 ug/mL; A. baumanni (N = 6)
Description: as §6, §7

[5] = tested on: P. aeruginosa R1023; assay: In vivo efficacy, whole-body infected mouse model, Ceftazidime-resistant bacteria;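 as to Survival rate: each column one dose of 5 10 20 or 40 mg/kg given sc at 1 h and 4 h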; design: species or system ICR mouse; conditions: for Survival rate: subcutaneous 1 h and 4 h after infection, P. aeruginosa R1023 (2 × 10^6 CFU/mouse), four days
Description: as §1, §2, §3, §4, §5

[6] = tested on: A. baumannii 49; assay: In vitro antibacterial activity test (broth microdilution); assay type: cell-based
Procedure, shortened: (§8)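 Values: MIC90, ug/mL. Method: CLSI broth microdilution on clinical isolates, compounds at final 0.0626 to 128 ug/mL.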

[7] = tested on: M. catarrhalis 2524; assay: as above; assay type: cell-based; conditions: Moraxella catarrhalis
Procedure, shortened: as §8

[8] = tested on: K. pneumoniae 2011E; assay: as above; assay type: cell-based; conditions: Klebsiella pneumoniae, 2011E
Procedure, shortened: as §8

[9] = tested on: K. pneumoniae β9; assay: as above; assay type: cell-based; conditions: Klebsiella pneumoniae
Procedure, shortened: as §8

[10] = tested on: A. baumannii 52; assay: as above; assay type: cell-based; conditions: Acinetobacter baumannii
Procedure, shortened: as §8

[11] = tested on: K. pneumoniae β11; assay: as above; assay type: cell-based; conditions: Klebsiella pneumoniae
Procedure, shortened: as §8

[12] = tested on: E. cloacae β19; assay: as above; assay type: cell-based; conditions: Enterobacter cloacae
Procedure, shortened: as §8

[13] = tested on: K. pneumoniae β10; assay: as above; assay type: cell-based; conditions: Klebsiella pneumoniae
Procedure, shortened: as §8

[14] = tested on: P. aeruginosa 6065Y; assay: as above; assay type: cell-based; conditions: Pseudomonas aeruginosa
Procedure, shortened: as §8

[15] = tested on: P. aeruginosa 1912E; assay: as above; assay type: cell-based; conditions: Pseudomonas aeruginosa, 1912E
Procedure, shortened: as §8

[16] = tested on: P. aeruginosa 37; assay: as above; assay type: cell-based; conditions: Pseudomonas aeruginosa, 37, P. aeruginosa 37
Procedure, shortened: as §8

[17] = tested on: E. coli AG100; assay: as above; assay type: cell-based; conditions: Escherichia coli
Procedure, shortened: as §8

[18] = tested on: P. aeruginosa 40; assay: as above; assay type: cell-based
Procedure, shortened: as §8

[19] = tested on: K. pneumoniae β13; assay: as above; assay type: cell-based; conditions: Klebsiella pneumoniae
Procedure, shortened: as §8

[20] = tested on: K. pneumoniae β14; assay: as above; assay type: cell-based; conditions: Klebsiella pneumoniae
Procedure, shortened: as §8

[21] = tested on: P. aeruginosa 43; assay: as above; assay type: cell-based; conditions: Pseudomonas aeruginosa
Procedure, shortened: as §8

[22] = tested on: A. baumannii 46; assay: as above; assay type: cell-based
Procedure, shortened: as §8

[23] = tested on: A. calcoaceticus ATCC15473; assay: as above; assay type: cell-based; conditions: Acinetobacter calcoaceticus
Procedure, shortened: as §8

[24] = tested on: E. coli β4; assay: as above; assay type: cell-based; conditions: Escherichia coli
Procedure, shortened: as §8

[25] = Acinetobacter baumannii, 49, A. baumannii 49
[26] = Acinetobacter baumannii, 46, A. baumannii 46
[27] = ATCC15473, A. calcoaceticus ATCC15473

Compound: CC(C)(O/N=C(\C(=O)N[C@@H]1C(=O)N2C(C(=O)[O-])=C(C[n+]3ccccc3)CS[C@H]12)c1csc(N)n1)C(=O)O [Ceftazidime, reference compound]
- Survival rate ([1]; 2.5 mg/kg subcutaneous after 1 hour and 4 hours): 40%
- Survival rate ([1]; 5 mg/kg subcutaneous after 1 hour and 4 hours): 80%
- Survival rate ([1]; 10 mg/kg subcutaneous after 1 hour and 4 hours): 100%
- Survival rate ([1]; 20 mg/kg subcutaneous after 1 hour and 4 hours): 100%
- ED50 ([1]; Pseudomonas aeruginosa, sc, subcutaneous, Probit method): 2.5 mg/kg
- number of clinical isolates that showed the respective MIC value ([2]; MIC 2 ug/mL): 1
- number of clinical isolates that showed the respective MIC value ([2]; MIC 4 ug/mL): 2
- number of clinical isolates that showed the respective MIC value ([2]; MIC 8 ug/mL): 1
- number of clinical isolates that showed the respective MIC value ([2]; MIC 16 ug/mL): 1
- number of clinical isolates that showed the respective MIC value ([2]; MIC >16 ug/mL): 11
- number of clinical isolates that showed the respective MIC value ([3]; MIC 0.5 ug/mL): 2
- number of clinical isolates that showed the respective MIC value ([3]; MIC 4 ug/mL): 1
- number of clinical isolates that showed the respective MIC value ([3]; MIC 16 ug/mL): 3
- number of clinical isolates that showed the respective MIC value ([3]; MIC >16 ug/mL): 32
- number of clinical isolates that showed the respective MIC value [4]: 6
- ED50 ([5]; Pseudomonas aeruginosa, sc, Probit method, subcutaneous, mouse infected by Ceftazidime-resistant P. aeruginosa R1023): 640 mg/kg
- Survival rate ([5]; administered amount 5 mg/kg): 0%
- Survival rate ([5]; administered amount 10 mg/kg): 20%
- Survival rate ([5]; administered amount 20 mg/kg): 20%
- Survival rate ([5]; administered amount 40 mg/kg): 20%
- MIC90 ([6]; Acinetobacter baumannii, A. baumannii 49, read-out: MIC90): > 64 mg/L
- MIC90 ([7]; M. catarrhalis 2524, read-out: MIC90): < 0.0625 mg/L
- MIC90 ([8]; K. pneumoniae 2011E, read-out: MIC90): 1 mg/L (≈ 1.83 µM)
- MIC90 ([9]; K. pneumoniae β9, read-out: MIC90): 16 mg/L (≈ 29.3 µM)
- MIC90 ([10]; A. baumannii 52, read-out: MIC90): > 64 mg/L
- MIC90 ([11]; K. pneumoniae β11, read-out: MIC90): 64 mg/L (≈ 117 µM)
- MIC90 ([12]; read-out: MIC90): 32 mg/L (≈ 58.5 µM)
- MIC90 ([13]; K. pneumoniae β10, read-out: MIC90): 32 mg/L (≈ 58.5 µM)
- MIC90 ([14]; read-out: MIC90): 32 mg/L (≈ 58.5 µM)
- MIC90 ([15]; read-out: MIC90): 1 mg/L (≈ 1.83 µM)
- MIC90 ([16]; read-out: MIC90): 64 mg/L (≈ 117 µM)
- MIC90 ([17]; AG100, E. coli AG100, read-out: MIC90): 0.5 mg/L (≈ 0.915 µM)
- MIC90 ([18]; Pseudomonas aeruginosa, 40, P. aeruginosa 40, read-out: MIC90): 4 mg/L (≈ 7.32 µM)
- MIC90 ([19]; K. pneumoniae β13, read-out: MIC90): 32 mg/L (≈ 58.5 µM)
- MIC90 ([20]; read-out: MIC90): 64 mg/L (≈ 117 µM)
- MIC90 ([21]; P. aeruginosa 43, read-out: MIC90): 16 mg/L (≈ 29.3 µM)
- MIC90 ([22]; Acinetobacter baumannii, A. baumannii 46, read-out: MIC90): 4 mg/L (≈ 7.32 µM)
- MIC90 ([23]; A. calcoaceticus ATCC15473, read-out: MIC90): 1 mg/L (≈ 1.83 µM)
- MIC90 ([24]; read-out: MIC90): 8 mg/L (≈ 14.6 µM)

Compound: CC(C)(O/N=C(\C(=O)N[C@@H]1C(=O)N2C(C(=O)[O-])=C(/C=C/C[n+]3cnc(N)c(NCCCCN)c3)CSC12)c1nc(N)sc1Cl)C(=O)O (some centres unmarked) [Compound 58]
- MIC90 [6, 25]: 32 mg/L (≈ 45.1 µM)
- MIC90 [7]; 2524: < 0.0625 mg/L
- MIC90 [8]: 2 mg/L (≈ 2.82 µM)
- MIC90 [9]: 8 mg/L (≈ 11.3 µM)
- MIC90 [10]; 52: 64 mg/L (≈ 90.2 µM)
- MIC90 [11]: 8 mg/L (≈ 11.3 µM)
- MIC90 [12]: 8 mg/L (≈ 11.3 µM)
- MIC90 [13]: 2 mg/L (≈ 2.82 µM)
- MIC90 ([14]; 6065Y): 32 mg/L (≈ 45.1 µM)
- MIC90 [15]: 8 mg/L (≈ 11.3 µM)
- MIC90 [16]: 32 mg/L (≈ 45.1 µM)
- MIC90 ([17]; AG100): 0.5 mg/L (≈ 0.705 µM)
- MIC90 ([18]; Pseudomonas aeruginosa, 40): 16 mg/L (≈ 22.6 µM)
- MIC90 [19]: 4 mg/L (≈ 5.64 µM)
- MIC90 [20]: 4 mg/L (≈ 5.64 µM)
- MIC90 [21]; 43: > 128 mg/L
- MIC90 [22, 26]: 32 mg/L (≈ 45.1 µM)
- MIC90 [23, 27]: 4 mg/L (≈ 5.64 µM)
- MIC90 [24]: 2 mg/L (≈ 2.82 µM)

Compound: C[C@H](O/N=C(\C(=O)N[C@@H]1C(=O)N2C(C(=O)[O-])=C(C[n+]3cnc(NCCN)c(NCCNC(=O)c4cc(=O)c(O)cn4O)c3)CSC12)c1nc(N)sc1Cl)C(=O)O (some centres unmarked) [Compound 21]
- MIC90 [6, 25]: 8 mg/L (≈ 9.56 µM)
- MIC90 [7]; 2524: 0.125 mg/L (≈ 0.149 µM)
- MIC90 [8]: 4 mg/L (≈ 4.78 µM)
- MIC90 [9]: 2 mg/L (≈ 2.39 µM)
- MIC90 [10]; 52: 2 mg/L (≈ 2.39 µM)
- MIC90 [11]: 8 mg/L (≈ 9.56 µM)
- MIC90 [12]: 16 mg/L (≈ 19.1 µM)
- MIC90 [13]: 2 mg/L (≈ 2.39 µM)
- MIC90 ([14]; 6065Y): 4 mg/L (≈ 4.78 µM)
- MIC90 [15]: 4 mg/L (≈ 4.78 µM)
- MIC90 [16]: 32 mg/L (≈ 38.2 µM)
- MIC90 ([17]; AG100): 0.5 mg/L (≈ 0.597 µM)
- MIC90 ([18]; Pseudomonas aeruginosa, 40): 8 mg/L (≈ 9.56 µM)
- MIC90 [19]: 2 mg/L (≈ 2.39 µM)
- MIC90 [20]: 16 mg/L (≈ 19.1 µM)
- MIC90 [21]; 43: 2 mg/L (≈ 2.39 µM)
- MIC90 [22, 26]: 16 mg/L (≈ 19.1 µM)
- MIC90 [23, 27]: 1 mg/L (≈ 1.19 µM)
- MIC90 [24]: 4 mg/L (≈ 4.78 µM)
